Reference: patent US11130762B2, “Azaaryl derivative, preparation method therefor, and application thereof for use in pharmacy” (Abbisko Therapeutics Co., Ltd., priority 2017, dated 2021)
Where two headings read alike, the source gives them in different places.

Assays:
CSF-1R = CSF-1R (Homo sapiens, UniProt P07333); assay: CSF-1R in vitro biochemical kinase study (ADP-Glo assay); details: 500 μM ATP, * = average of multiple tests, read-out: Enzymatic experiment CSF1R IC50
Method: A. CSF-1R In Vitro Biochemical Kinase Study
In the present invention, the inhibitory activity of compounds against the CSF-1R activity was determined by using CSF-1R ADP-Glo assay. The compound-mediated inhibition effect was achieved by inhibiting the production of ADP from consumption of ATP, and the activities of compounds were evaluated by using the ADP-Glo kit (Promega, cat. No. V9101). The specific experimental process was as follows:
1. The kinase reaction performed in the present invention was carried out in a 384-well plate (Perkinelmer, cat. No. 6007290), 3.95 nM of CSF-1R, 500 μM of ATP, and 0.2 mg/mL of polypeptide (Poly (Glu4, Try1), Sigma, cat. No. P0275) were respectively weighed and added to each well:
2. following reagents were then added to each well to reach the final reaction system: 40 mM Tris, pH 7.5, 20 mM MgCl2, 0.01% Triton X-100, 0.1 mg/mL BSA, 2.5 mM DTT, and 0.1% DMSO;
3. the reaction was conducted at 30° C. for 60 min;
4. then an equal volume of stop solution (ADP-Glo) was added to the kinase reaction system;
5. the mixed solution was incubated at 25° C. for 60 min, and the kinase reaction was then terminated;
6. a two-fold volume of detection reagent was then added to each well;
7. the mixed solution was incubated at 25° C. for 30 min;
8. the compound IC50 value was measured by using a plate reader (Tecan, M1000) and a four-parameter curve was generated in Graphpad Prism.

KIT kinase = KIT kinase (Homo sapiens, UniProt P10721); assay: KIT in vitro biochemical kinase study (Caliper EZ Reader); details: Caliper mobility shift; read-out: Enzymatic experiment KIT IC50
Sequence of KIT kinase (P10721 26-976): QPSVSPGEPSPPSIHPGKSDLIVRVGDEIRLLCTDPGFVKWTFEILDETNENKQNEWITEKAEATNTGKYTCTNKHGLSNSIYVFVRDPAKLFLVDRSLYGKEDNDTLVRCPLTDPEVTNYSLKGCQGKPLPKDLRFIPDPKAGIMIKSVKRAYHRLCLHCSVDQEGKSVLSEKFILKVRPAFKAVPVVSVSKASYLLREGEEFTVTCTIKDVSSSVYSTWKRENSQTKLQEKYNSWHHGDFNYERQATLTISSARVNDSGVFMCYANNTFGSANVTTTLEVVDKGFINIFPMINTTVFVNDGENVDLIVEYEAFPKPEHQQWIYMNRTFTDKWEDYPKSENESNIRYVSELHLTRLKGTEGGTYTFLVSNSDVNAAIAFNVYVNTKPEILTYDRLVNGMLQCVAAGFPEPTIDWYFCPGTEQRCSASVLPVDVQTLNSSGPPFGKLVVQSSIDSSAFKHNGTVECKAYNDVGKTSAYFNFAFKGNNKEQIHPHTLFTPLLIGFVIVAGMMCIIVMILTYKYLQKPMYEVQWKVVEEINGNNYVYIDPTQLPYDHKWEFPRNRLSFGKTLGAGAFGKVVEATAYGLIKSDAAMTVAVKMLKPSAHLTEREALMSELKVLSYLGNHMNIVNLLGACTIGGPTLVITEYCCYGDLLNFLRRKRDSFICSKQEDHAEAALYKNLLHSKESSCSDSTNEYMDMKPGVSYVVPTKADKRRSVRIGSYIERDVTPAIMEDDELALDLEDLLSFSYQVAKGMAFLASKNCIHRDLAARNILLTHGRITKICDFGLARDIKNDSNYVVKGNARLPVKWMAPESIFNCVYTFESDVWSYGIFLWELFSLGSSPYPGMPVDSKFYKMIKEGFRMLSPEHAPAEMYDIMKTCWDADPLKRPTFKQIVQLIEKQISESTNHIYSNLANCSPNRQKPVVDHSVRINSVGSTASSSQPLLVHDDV
Method: (§1) B. KIT/PDGFRA In Vitro Biochemical Kinase Study
(§2) 1. Preparation of 1-Fold Kinase Buffer and Stop Solution
(§3) 1.2 stop solution: 100 mM HEPES, pH 7.5, 0.015% Brij-35, 0.2% Coating Reagent #3, 50 mM EDTA
(§4) 2. Preparation of Compound Solution
(§5) 2.1 Dilution of Compound Solution
(§6) 1) The final concentration of the compound solution was 40 μM, and the concentration of the prepared stock solution was 50 times of the final concentration, i.e., 2 mM.
(§7) 2) 80 μL of 100% DMSO was added to the second well of the 96-well plate, then 20 μL of 10 mM compound solution was added, and thereby 2 mM compound solution was prepared, 60 μL of 100% DMSO was added to other wells, 20 μL of compound was taken from the second well, added to the third well and diluted by 4 times. This serial 4-time dilution was conducted in sequence for the total of 10 concentrations.
(§8) 2.2 5-Fold Compound Solution Transferred to a Reaction Plate
(§9) 1) 10 μL of solution was taken from each well of the above 96-well plate and added to another 96-well plate, and 90 μL of kinase buffer was added.
(§10) 2) 5 μL of solution was taken from the above 96-well plate and added to a 384-well reaction plate.
(§11) 1) KIT/PDGFRA kinase was added to the 1-fold kinase buffer solution to obtain a 2.5-fold kinase solution.
(§12) 2) FAM-labeled polypeptide and ATP were added to the 1-fold kinase buffer solution to obtain a 2.5-fold substrate solution.
(§13) 3) 10 μL of 2.5-fold kinase solution was added to the 384-well reaction plate, which already contained 5 μL of 5-fold compound in 10% DMSO. And the mixed solution was incubated at room temperature for 10 min.
(§14) 4) 10 μL of 2.5-fold substrate solution was added to the 384-well reaction plate.
(§15) 5) Kinase reaction and termination: the mixed solution was incubated at 28° C. for a certain period of time, and 25 μL of stop solution was added to stop the reaction.
(§16) 2.4 Data Reading of Caliper EZ Reader II
(§17) 2.5 Calculation of Percent Inhibition and IC50
(§18) 1) Percent conversion data were copied from the Caliper EZ Reader. […]

PDGFRA kinase = PDGFRA kinase (Homo sapiens, UniProt P16234); assay: PDGFRA in vitro biochemical kinase study (Caliper EZ Reader); details: Caliper mobility shift; read-out: Enzymatic experiment PDGFRA IC50
Sequence of PDGFRA kinase (P16234 24-1089): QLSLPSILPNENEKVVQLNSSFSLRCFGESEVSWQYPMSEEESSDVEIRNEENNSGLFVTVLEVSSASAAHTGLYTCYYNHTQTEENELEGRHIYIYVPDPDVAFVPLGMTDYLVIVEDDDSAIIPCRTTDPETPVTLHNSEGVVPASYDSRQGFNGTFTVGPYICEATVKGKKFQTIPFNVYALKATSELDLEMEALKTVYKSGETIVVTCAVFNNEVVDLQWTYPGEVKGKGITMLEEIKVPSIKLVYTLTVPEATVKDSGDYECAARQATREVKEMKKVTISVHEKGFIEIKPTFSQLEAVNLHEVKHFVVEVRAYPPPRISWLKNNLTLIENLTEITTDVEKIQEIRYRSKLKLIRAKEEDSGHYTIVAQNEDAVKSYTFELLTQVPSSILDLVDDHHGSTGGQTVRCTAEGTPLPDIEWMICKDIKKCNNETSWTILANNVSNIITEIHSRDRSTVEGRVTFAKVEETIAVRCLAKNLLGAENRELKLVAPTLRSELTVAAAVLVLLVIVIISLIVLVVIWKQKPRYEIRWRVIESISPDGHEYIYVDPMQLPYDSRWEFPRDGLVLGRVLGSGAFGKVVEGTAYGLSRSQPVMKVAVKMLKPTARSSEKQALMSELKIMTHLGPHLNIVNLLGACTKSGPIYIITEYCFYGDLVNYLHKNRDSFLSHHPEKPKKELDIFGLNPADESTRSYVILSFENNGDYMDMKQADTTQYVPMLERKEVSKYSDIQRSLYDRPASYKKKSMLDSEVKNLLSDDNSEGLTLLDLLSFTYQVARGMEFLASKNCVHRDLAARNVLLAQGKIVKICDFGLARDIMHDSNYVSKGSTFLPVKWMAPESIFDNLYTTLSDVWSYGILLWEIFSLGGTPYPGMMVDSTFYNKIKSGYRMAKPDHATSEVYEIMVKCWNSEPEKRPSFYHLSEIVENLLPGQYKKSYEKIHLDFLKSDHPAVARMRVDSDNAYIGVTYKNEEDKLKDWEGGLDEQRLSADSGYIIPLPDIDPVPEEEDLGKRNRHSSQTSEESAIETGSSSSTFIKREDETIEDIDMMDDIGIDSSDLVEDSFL
Method: as §1, §2, §3, §4, §5, §6, §7, §8, §9, §10, §11, §12, §13, §14, §15, §16, §17, §18

[1] = system: M-NFS-60 mouse myeloid leukemia lymphocytes; assay: CSF-1R-related cell proliferation experiment (Cell Titer Glo), M-NFS-60 cells with M-CSF; type: cell-based; details: Lymphocyte, 72 h, 3 days, CTG, * = average of multiple tests
Method: C. CSF-1R-Related Cell Proliferation Experiment
Functional effects of compounds on cell proliferation were evaluated by using Cell Titer Glo (CTG) study in the present invention. M-NFS-60 mouse myeloid leukemia lymphocytes (cat. No. CCBJ078) from National Institutes For Food and Drug Control were cultured in the incubator under conditions of RPMI 1640 (Gibco, cat. No. 11875-119), 10% fetal bovine serum (Gibco, 10099-141), human 10 ng/mL M-CSF macrophage colony-stimulating factor (R&D, cat. No. MVN0915101), 37° C., and 5% CO2. Since ATP is an index for viable cell metabolism, CTG (Promega, #G7573) reagent is a homogeneous detection method for detecting the number of viable cells in the culture by quantifying ATP. Therefore, compound-mediated inhibition for cell proliferation/survival was evaluated by quantifying ATP content in cells, and the specific experimental process was as follows:
1. The cells were plated into a tissue-culture-medium-treated 96-well plate (Costar #3904) with 5,000 cells/well/80 μL fresh culture medium;
2. 24 hours later, 10 μL culture medium containing testing compound with 10-fold of final concentration was added to each well;
3. 10 μL of culture medium containing M-CSF with 10-fold of the final concentration was then added to each well;
4. dosage effect was evaluated by testing the 3-fold serial dilutions of the compound;
5. after the cells were incubated for 3 days at 37° C. and 5% CO2, the inhibition on cell survival was quantified after 50 μL of CTG was added and the luminescence assay was performed;
6. the compound concentration leading to half maximal inhibitory (IC50) and the compound concentration leading to absolute half maximal inhibitory (Absolute IC50) were measured by a plate reader (M1000, Tecan) and a four-parameter curve fit in Graphpad Prism 7.

Sequence of CSF-1R (P07333 20-972): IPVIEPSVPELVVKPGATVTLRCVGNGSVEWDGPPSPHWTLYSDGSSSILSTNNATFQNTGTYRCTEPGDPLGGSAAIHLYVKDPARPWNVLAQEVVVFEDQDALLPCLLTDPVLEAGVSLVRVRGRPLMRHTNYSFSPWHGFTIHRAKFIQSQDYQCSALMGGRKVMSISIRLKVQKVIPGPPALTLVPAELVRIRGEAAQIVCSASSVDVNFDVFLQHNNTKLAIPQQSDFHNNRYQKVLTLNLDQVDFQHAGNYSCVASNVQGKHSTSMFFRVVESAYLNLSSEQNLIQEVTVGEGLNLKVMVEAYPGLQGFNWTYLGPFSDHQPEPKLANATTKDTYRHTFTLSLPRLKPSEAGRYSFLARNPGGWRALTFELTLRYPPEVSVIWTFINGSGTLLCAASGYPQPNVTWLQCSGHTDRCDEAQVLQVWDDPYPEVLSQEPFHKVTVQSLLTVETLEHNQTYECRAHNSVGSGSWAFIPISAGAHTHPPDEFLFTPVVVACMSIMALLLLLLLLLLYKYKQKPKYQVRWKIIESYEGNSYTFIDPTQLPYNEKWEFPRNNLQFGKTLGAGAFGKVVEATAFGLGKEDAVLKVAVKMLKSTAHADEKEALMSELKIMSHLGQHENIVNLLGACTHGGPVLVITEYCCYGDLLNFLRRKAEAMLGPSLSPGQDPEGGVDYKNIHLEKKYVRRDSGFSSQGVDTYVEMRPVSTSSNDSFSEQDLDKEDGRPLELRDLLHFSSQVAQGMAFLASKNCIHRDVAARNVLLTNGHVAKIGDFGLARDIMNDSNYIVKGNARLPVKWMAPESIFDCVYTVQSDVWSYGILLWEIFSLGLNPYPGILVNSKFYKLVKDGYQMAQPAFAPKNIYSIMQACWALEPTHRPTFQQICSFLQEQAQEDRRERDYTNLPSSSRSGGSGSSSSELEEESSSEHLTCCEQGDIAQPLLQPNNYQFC

IC50 (CSF-1R): 95.2 nM
IC50 (KIT kinase): 22.6 nM
IC50 (PDGFRA kinase): 226 nM
IC50 ([1]; read-out: Cytological experiment CSF1R IC50): 127 nM
IC50 ([1]; absolute half maximal inhibition, read-out: Cytological experiment CSF-1R Absolute IC50): 114 nM
Compound: Cc1nc(-c2cnc3n(c2=O)CCCN3C(C)C)ccc1Oc1ccnc(-c2cnn(C)c2)c1 [Example 5, 9-isopropyl-3-(6-methyl-5-((2-(1-methyl-1H-pyrazol-4-yl)pyridin-4-yl)oxy)pyridin-2-yl)-6,7,8,9-tetrahydro-4H-pyrimido[1,2-a]pyrimidin-4-one]
